In patent publication US12495818B2, “Dihydrochalcones from Balanophora harlandii” (The Coca-Cola Company, priority 2018, dated 2025):

Tested on: panelists
Experiment: Sweetness enhancement taste panel (Example 2)
Assay type: in vivo, human
Conditions: 20 ppm CC-00474 + 250 ppm Rebaudioside M in acidic water (citric acid) vs control of 250 ppm Rebaudioside M and PG; served cold, sip and spit; all panelists agreed
Method: Samples were prepared with the following ingredients:
CC-00474 in PG was prepared in weighing boat and added to Reb M solution while stirring. The weighing boat was rinsed with Reb M solution. The solution was stirred visibly clear and the sample was poured into a glass bottle and stored at 4° C.
Bottles were removed from the refrigerator and about 25 ml of beverage was poured into 4 oz-plastic cups. Panelists were given mineral water to rinse their mouth before tasting and between tasting different samples. Unsalted crackers were also given to panelist to eat followed by rinsing their mouth with mineral water before tasting the next sample.
A sample of Rebaudioside M in acidic water and a sample of CC-00474 and Rebaudioside M in acidic water were given to panelists. Panelists were asked to evaluate the sweetness of samples and describe the difference of taste profile. Panelists were instructed to sip, evaluate the sweetness, and then spit the samples in cups provided for that purpose.

COc1cc(CCC(=O)c2c(O)cc(O[C@@H]3OC(CO)[C@@H](O)[C@H](O)C3O)cc2O)ccc1O (stereo partly drawn) [CC-00474, 3-methoxyphloretin-4′-O-β-D-glucoside]
sweetness of the sample compared with Rebaudioside M only: sweeter than the sample containing Rebaudioside M only
